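Five compound concentrations were applied to cells in 96-well plates for 48 hours; endpoints were derived by simple linear interpolation of the resulting dose-response curve. Here, GI50 denotes the concentration required for 50% inhibition of growth. TGI: total growth inhibition.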
Key:
Experiment in all cases: NCI anticancer screen, dose series, 48 h
[1] = system: CAKI-1 renal
[2] = system: OVCAR-8 ovarian
[3] = system: HT29 colon
[4] = system: K-562 leukemia
[5] = system: CCRF-CEM leukemia
[6] = system: OVCAR-5 ovarian
[7] = system: SNB-75 CNS
[8] = system: NCI-H460 lung
[9] = system: MALME-3M melanoma
[10] = system: HCT-116 colon
[11] = system: SK-MEL-2 melanoma
[12] = system: MDA-MB-435
[13] = system: HL-60(TB) leukemia
[14] = system: TK-10 renal
[15] = system: UACC-257 melanoma
[16] = system: SK-MEL-5 melanoma
[17] = system: SF-539 CNS
[18] = system: EKVX NSCLC
[19] = system: T-47D breast
[20] = system: SNB-19 CNS
[21] = system: U251 CNS
[22] = system: OVCAR-4 ovarian
[23] = system: HOP-92 NSCLC
[24] = system: NCI-H522 lung
[25] = system: BT-549 breast
[26] = system: SK-MEL-28 melanoma
[27] = system: NCI-H23 lung
[28] = system: SR leukemia
[29] = system: 786-0 renal
[30] = system: HCT-15 colon
[31] = system: NCI-H226 lung
[32] = system: DU-145 prostate
[33] = system: SW-620 colon
[34] = system: SN12C renal
[35] = system: UO-31 renal
[36] = system: RXF 393 renal
[37] = system: A549 NSCLC
[38] = system: ACHN renal
[39] = system: MCF7 breast
[40] = system: HCC-2998 colon
[41] = system: IGROV1 ovarian
[42] = system: RPMI-8226 leukemia
[43] = system: NCI/ADR-RES ovarian
[44] = system: HS 578T breast
[45] = system: MDA-MB-231 breast
[46] = system: SF-268 CNS
[47] = system: M14 melanoma
[48] = system: MOLT-4 leukemia
[49] = system: COLO 205 colon
[50] = system: LOX IMVI melanoma
[51] = system: PC-3 prostate
[52] = system: OVCAR-3 ovarian
[53] = system: UACC-62 melanoma
[54] = system: KM12 colon
[55] = system: A498 renal
[56] = system: SF-295 CNS
[57] = system: HOP-62 NSCLC

How did the GI50 [1] turn out when FC(F)(F)c1ccc(-c2cncn2-c2ccccc2)cc1 was run?
The GI50 was 4.71 µM.

What about the TGI [1] of the same molecule?
Its TGI is over 100 µM.

And the GI50 [2]?
The GI50 was 13.6 µM.

What about the TGI [2] of the same molecule?
The TGI was 33.8 µM.

What about the GI50 [3] of the same molecule?
Its GI50 is 21.3 µM.

And the TGI [3]?
The TGI was over 100 µM.

What about the GI50 [4] of the same molecule?
The GI50 was 20.9 µM.

And the TGI [4]?
Its TGI is 77.6 µM.

And the GI50 [5]?
Its GI50 is 2.84 µM.

And the TGI [5]?
The TGI was 15.7 µM.

What about the GI50 [6] of the same molecule?
The GI50 was 23.5 µM.

And the TGI [6]?
The TGI was 79.4 µM.

What about the GI50 [7] of the same molecule?
The GI50 was 15.3 µM.

What about the TGI [7] of the same molecule?
Its TGI is 40.7 µM.

And the GI50 [8]?
Its GI50 is 16.9 µM.

What about the TGI [8] of the same molecule?
Its TGI is over 100 µM.

And the GI50 [9]?
Its GI50 is 21.1 µM.

What about the TGI [9] of the same molecule?
The TGI was 43.1 µM.

What about the GI50 [10] of the same molecule?
Its GI50 is 1.88 µM.

What about the TGI [10] of the same molecule?
Its TGI is 16.3 µM.

What about the GI50 [11] of the same molecule?
The GI50 was 18.2 µM.

And the TGI [11]?
Its TGI is 37.9 µM.

What about the GI50 [12] of the same molecule?
The GI50 was 24.4 µM.

What about the TGI [12] of the same molecule?
Its TGI is 88.5 µM.

What about the GI50 [13] of the same molecule?
Its GI50 is 12.7 µM.

What about the TGI [13] of the same molecule?
Its TGI is 35.6 µM.

What about the GI50 [14] of the same molecule?
Its GI50 is 24.2 µM.

And the TGI [14]?
The TGI was over 100 µM.

What about the GI50 [15] of the same molecule?
The GI50 was 19.9 µM.

What about the TGI [15] of the same molecule?
The TGI was 49 µM.

And the GI50 [16]?
The GI50 was 13 µM.

And the TGI [16]?
The TGI was 26.9 µM.

What about the GI50 [17] of the same molecule?
Its GI50 is 15.6 µM.

And the TGI [17]?
Its TGI is 41.8 µM.

What about the GI50 [18] of the same molecule?
Its GI50 is 17.1 µM.

What about the TGI [18] of the same molecule?
The TGI was 54.3 µM.

And the GI50 [19]?
The GI50 was 15.5 µM.

What about the TGI [19] of the same molecule?
The TGI was over 100 µM.

What about the GI50 [20] of the same molecule?
Its GI50 is 10.4 µM.

And the TGI [20]?
Its TGI is 38.5 µM.

What about the GI50 [21] of the same molecule?
Its GI50 is 6.89 µM.

And the TGI [21]?
Its TGI is 30.6 µM.

What about the GI50 [22] of the same molecule?
The GI50 was 36 µM.

What about the TGI [22] of the same molecule?
The TGI was over 100 µM.

And the GI50 [23]?
The GI50 was 2.89 µM.

What about the TGI [23] of the same molecule?
Its TGI is 18.9 µM.

What about the GI50 [24] of the same molecule?
The GI50 was 8.54 µM.

And the TGI [24]?
Its TGI is 25.2 µM.

And the GI50 [25]?
The GI50 was 15.1 µM.

What about the TGI [25] of the same molecule?
The TGI was 40.4 µM.

What about the GI50 [26] of the same molecule?
The GI50 was 39.1 µM.

And the TGI [26]?
Its TGI is over 100 µM.

What about the GI50 [27] of the same molecule?
Its GI50 is 10.4 µM.

What about the TGI [27] of the same molecule?
Its TGI is 34.4 µM.

What about the GI50 [28] of the same molecule?
Its GI50 is 1.18 µM.

And the TGI [28]?
The TGI was 7.89 µM.

What about the GI50 [29] of the same molecule?
Its GI50 is 10 µM.

And the TGI [29]?
Its TGI is 21.9 µM.

What about the GI50 [30] of the same molecule?
The GI50 was 18.1 µM.

And the TGI [30]?
Its TGI is over 100 µM.

And the GI50 [31]?
Its GI50 is 10.5 µM.

What about the TGI [31] of the same molecule?
The TGI was 27.8 µM.

What about the GI50 [32] of the same molecule?
Its GI50 is 6.28 µM.

What about the TGI [32] of the same molecule?
The TGI was 26.2 µM.

What about the GI50 [33] of the same molecule?
The GI50 was 4.03 µM.

And the TGI [33]?
Its TGI is 57.1 µM.

And the GI50 [34]?
The GI50 was 10.4 µM.

What about the TGI [34] of the same molecule?
Its TGI is 23.5 µM.

And the GI50 [35]?
Its GI50 is 4.59 µM.

And the TGI [35]?
The TGI was 21.5 µM.

And the GI50 [36]?
Its GI50 is 16.6 µM.

What about the TGI [36] of the same molecule?
The TGI was 32.2 µM.

And the GI50 [37]?
Its GI50 is 11.9 µM.

And the TGI [37]?
The TGI was 27.5 µM.

What about the GI50 [38] of the same molecule?
The GI50 was 3.68 µM.

What about the TGI [38] of the same molecule?
Its TGI is 23 µM.

What about the GI50 [39] of the same molecule?
The GI50 was 22.7 µM.

What about the TGI [39] of the same molecule?
Its TGI is over 100 µM.

And the GI50 [40]?
The GI50 was 12.3 µM.

What about the TGI [40] of the same molecule?
Its TGI is 26.2 µM.

And the GI50 [41]?
Its GI50 is 12.3 µM.

And the TGI [41]?
Its TGI is 38.6 µM.

What about the GI50 [42] of the same molecule?
The GI50 was 5.75 µM.

What about the TGI [42] of the same molecule?
The TGI was 27.2 µM.

What about the GI50 [43] of the same molecule?
Its GI50 is 7.13 µM.

And the TGI [43]?
The TGI was 30.2 µM.

What about the GI50 [44] of the same molecule?
The GI50 was 16.4 µM.

And the TGI [44]?
The TGI was 47.8 µM.

And the GI50 [45]?
The GI50 was 11.8 µM.

And the TGI [45]?
Its TGI is 28.6 µM.

What about the GI50 [46] of the same molecule?
The GI50 was 36.6 µM.

What about the TGI [46] of the same molecule?
The TGI was over 100 µM.

What about the GI50 [47] of the same molecule?
The GI50 was 13 µM.

And the TGI [47]?
The TGI was 27.1 µM.

What about the GI50 [48] of the same molecule?
Its GI50 is 3.9 µM.

And the TGI [48]?
Its TGI is 27.2 µM.

What about the GI50 [49] of the same molecule?
The GI50 was 19.1 µM.

And the TGI [49]?
The TGI was 47.1 µM.

And the GI50 [50]?
Its GI50 is 5.68 µM.

And the TGI [50]?
Its TGI is 23.2 µM.

And the GI50 [51]?
Its GI50 is 13 µM.

And the TGI [51]?
The TGI was 35.6 µM.

And the GI50 [52]?
Its GI50 is 16.6 µM.

What about the TGI [52] of the same molecule?
Its TGI is 38.9 µM.

And the GI50 [53]?
Its GI50 is 11.2 µM.

What about the TGI [53] of the same molecule?
Its TGI is 24.9 µM.

What about the GI50 [54] of the same molecule?
The GI50 was 20.6 µM.

What about the TGI [54] of the same molecule?
The TGI was 70.8 µM.

And the GI50 [55]?
Its GI50 is 12.9 µM.

What about the TGI [55] of the same molecule?
Its TGI is 27.1 µM.

And the GI50 [56]?
Its GI50 is 19.3 µM.

What about the TGI [56] of the same molecule?
Its TGI is over 100 µM.

And the GI50 [57]?
Its GI50 is 2.72 µM.

What about the TGI [57] of the same molecule?
The TGI was 20.7 µM.

— PubChem BioAssay (NCI)
